Laboratory results as given in PMC13043538, “In vitro thyroperoxidase inhibition assessment by LC-ICP-MS-based L-tyrosine iodination assay: comparison with Amplex Ultrared assay and its modifications” (Archives of Toxicology, 2026).

Target: T1, human TPO (Homo sapiens, UniProt P07202)
T1 construct: expressed in transfected cells; host or cells: HEK293T (HEK-TPOA7 clone), whole-cell lysate in 0.1% sodium deoxycholate
T1 sequence (P07202 19-933): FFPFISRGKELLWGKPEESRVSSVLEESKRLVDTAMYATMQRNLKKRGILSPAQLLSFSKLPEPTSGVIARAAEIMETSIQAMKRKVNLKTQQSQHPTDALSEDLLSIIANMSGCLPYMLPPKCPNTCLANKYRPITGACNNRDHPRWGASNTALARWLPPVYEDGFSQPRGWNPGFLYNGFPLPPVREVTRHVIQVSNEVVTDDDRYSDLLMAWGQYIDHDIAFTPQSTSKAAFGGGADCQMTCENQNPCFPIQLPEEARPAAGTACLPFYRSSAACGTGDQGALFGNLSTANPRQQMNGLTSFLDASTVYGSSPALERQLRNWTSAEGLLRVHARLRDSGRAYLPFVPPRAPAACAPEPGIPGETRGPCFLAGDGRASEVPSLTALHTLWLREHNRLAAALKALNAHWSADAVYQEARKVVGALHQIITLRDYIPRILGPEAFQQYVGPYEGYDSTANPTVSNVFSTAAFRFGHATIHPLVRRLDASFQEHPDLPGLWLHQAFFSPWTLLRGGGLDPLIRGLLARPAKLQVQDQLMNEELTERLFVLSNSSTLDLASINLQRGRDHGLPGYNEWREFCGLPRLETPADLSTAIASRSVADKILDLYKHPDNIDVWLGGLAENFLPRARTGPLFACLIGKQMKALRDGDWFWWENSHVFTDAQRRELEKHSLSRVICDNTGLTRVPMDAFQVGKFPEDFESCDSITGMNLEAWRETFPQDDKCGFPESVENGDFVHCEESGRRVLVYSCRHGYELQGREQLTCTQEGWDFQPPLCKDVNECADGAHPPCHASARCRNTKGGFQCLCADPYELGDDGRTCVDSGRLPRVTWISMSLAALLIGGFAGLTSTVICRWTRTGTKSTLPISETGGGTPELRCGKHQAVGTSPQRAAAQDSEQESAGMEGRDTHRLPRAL
Test: standard Amplex UltraRed (AUR) TPO assay, HEK-TPOA7 cell lysate, fluorescence
Assay type: biochemical
Conditions: no modification, read-out: IC50 (± standard deviation)
Method: Briefly, the cells were washed with phosphate-buffered saline (PBS), scraped, resuspended in PBS, and centrifuged for 5 min at 150 rcf. […] Lysed cells were centrifuged for 5 min at 12,000 rcf to extract the soluble protein fraction. The cell lysates were kept at − 80 °C for longer-term storage.

Oc1cc(Cl)ccc1Oc1ccc(Cl)cc1Cl [TCS, Triclosan]
IC50: 199 µM
